Reference: the NIST ThermoML archive (doi:10.1021/je800110r)

Conditions: 293.15 K, Liquid, Vibrating tube method

CCCCCCCCCC [decane]
Conditions | mass density [kg/m3]
22074 kPa | 745.5
22091 kPa | 745.6
22110 kPa | 745.5
22128 kPa | 745.6
22143 kPa | 745.7
22164 kPa | 745.5
22179 kPa | 745.6
22199 kPa | 745.6
22217 kPa | 745.7
22235 kPa | 745.7
22253 kPa | 745.5
22275 kPa | 745.8
22300 kPa | 745.7
22318 kPa | 745.7
22336 kPa | 745.7
22358 kPa | 745.8
22373 kPa | 745.8
22397 kPa | 745.8
22412 kPa | 745.8
22434 kPa | 745.7
22452 kPa | 745.7
22473 kPa | 745.8
22498 kPa | 745.9
22523 kPa | 745.9
22542 kPa | 745.8
22564 kPa | 746
22583 kPa | 745.9
22605 kPa | 745.9
22624 kPa | 745.9
22648 kPa | 745.8
22667 kPa | 745.9
22689 kPa | 746
22711 kPa | 745.9
22727 kPa | 746
22746 kPa | 746
22771 kPa | 746
22787 kPa | 746
22807 kPa | 746
22830 kPa | 746.1
22852 kPa | 746.1
22866 kPa | 746
22882 kPa | 746.2
22899 kPa | 746.2
22915 kPa | 746.2
22934 kPa | 746.2
22948 kPa | 746.2
22970 kPa | 746.2
22994 kPa | 746.1
23011 kPa | 746.2
23030 kPa | 746.2
23047 kPa | 746.1
23069 kPa | 746.1
23086 kPa | 746.1
23108 kPa | 746.2
23127 kPa | 746.3
23144 kPa | 746.2
23167 kPa | 746.2
23186 kPa | 746.2
23206 kPa | 746.4
23223 kPa | 746.3
23246 kPa | 746.3
23265 kPa | 746.4
23285 kPa | 746.4
23308 kPa | 746.2
23328 kPa | 746.4
23345 kPa | 746.3
23362 kPa | 746.3
23382 kPa | 746.3
23402 kPa | 746.3
23416 kPa | 746.3
23434 kPa | 746.3
23454 kPa | 746.4
23472 kPa | 746.4
23489 kPa | 746.5
23509 kPa | 746.5
23529 kPa | 746.5
23547 kPa | 746.5
23565 kPa | 746.5
23582 kPa | 746.5
23605 kPa | 746.6
23632 kPa | 746.7
23647 kPa | 746.6
23668 kPa | 746.5
23687 kPa | 746.7
23704 kPa | 746.6
23728 kPa | 746.7
23755 kPa | 746.6
23773 kPa | 746.6
23790 kPa | 746.7
23811 kPa | 746.7
23826 kPa | 746.6
23847 kPa | 746.7
23875 kPa | 746.7
23896 kPa | 746.8
23917 kPa | 746.8
23940 kPa | 746.7
23964 kPa | 746.9
23985 kPa | 746.9
24004 kPa | 746.7
24022 kPa | 747
24046 kPa | 746.8
24065 kPa | 746.8
24089 kPa | 746.8
24108 kPa | 746.9
24126 kPa | 746.9
24148 kPa | 746.9
24170 kPa | 746.9
24194 kPa | 746.9
24219 kPa | 747
24237 kPa | 747
24256 kPa | 746.9
24284 kPa | 747
24309 kPa | 747
24334 kPa | 747
24356 kPa | 747.1
24374 kPa | 747
24393 kPa | 747
24416 kPa | 747
24435 kPa | 747.1
24454 kPa | 747.1
24479 kPa | 747.1
24498 kPa | 747.1
24526 kPa | 747.1
24545 kPa | 747.1
24574 kPa | 747.2
24590 kPa | 747.2
24613 kPa | 747.1
24632 kPa | 747.2
24655 kPa | 747.3
24678 kPa | 747.2
24700 kPa | 747.2
24720 kPa | 747.2
24739 kPa | 747.2
24759 kPa | 747.4
24779 kPa | 747.4
24808 kPa | 747.3
24834 kPa | 747.2
24857 kPa | 747.4
24883 kPa | 747.4
24899 kPa | 747.3
24926 kPa | 747.4
24943 kPa | 747.5
24972 kPa | 747.3
24999 kPa | 747.4
25019 kPa | 747.5
25048 kPa | 747.5
25068 kPa | 747.5
25092 kPa | 747.5
25116 kPa | 747.5
25139 kPa | 747.5
25163 kPa | 747.5
25187 kPa | 747.6
25218 kPa | 747.7
25238 kPa | 747.6
25269 kPa | 747.5
25300 kPa | 747.7
25320 kPa | 747.7
25345 kPa | 747.6
25370 kPa | 747.6
25391 kPa | 747.7
25419 kPa | 747.6
25442 kPa | 747.7
25468 kPa | 747.8
25493 kPa | 747.7
25512 kPa | 747.6
25535 kPa | 747.8
25557 kPa | 747.8
25577 kPa | 747.8
25599 kPa | 747.7
25615 kPa | 747.7
25638 kPa | 747.9
25657 kPa | 747.8
25680 kPa | 747.8
25699 kPa | 747.8
25720 kPa | 748
25746 kPa | 747.9
25766 kPa | 747.9
25788 kPa | 747.9
25808 kPa | 747.9
25835 kPa | 748
25861 kPa | 748
25887 kPa | 748
25907 kPa | 748.1
25933 kPa | 747.9
25959 kPa | 748
25986 kPa | 748
26006 kPa | 748.1
26023 kPa | 748
26040 kPa | 748.1
26070 kPa | 748.1
26093 kPa | 748.1
26117 kPa | 748.1
26145 kPa | 748.1
26165 kPa | 748.2
26192 kPa | 748.1
26216 kPa | 748.1
26243 kPa | 748.1
26263 kPa | 748.4
26291 kPa | 748.2
26315 kPa | 748.2
26335 kPa | 748.3
26352 kPa | 748.3
26370 kPa | 748.3
26390 kPa | 748.4
26408 kPa | 748.3
26432 kPa | 748.3
26453 kPa | 748.3
26483 kPa | 748.4
26516 kPa | 748.4
26537 kPa | 748.4
26568 kPa | 748.4
26586 kPa | 748.5
26607 kPa | 748.4
26631 kPa | 748.5
26652 kPa | 748.5
26677 kPa | 748.4
26694 kPa | 748.5
26719 kPa | 748.4
26741 kPa | 748.5
26769 kPa | 748.5
26795 kPa | 748.5
26816 kPa | 748.5
26841 kPa | 748.6
26863 kPa | 748.5
26885 kPa | 748.6
26913 kPa | 748.7
26935 kPa | 748.7
26964 kPa | 748.7
26989 kPa | 748.6
27011 kPa | 748.7
27036 kPa | 748.7
27054 kPa | 748.6
27077 kPa | 748.7
27103 kPa | 748.7
27128 kPa | 748.8
27154 kPa | 748.7
27173 kPa | 748.7
27202 kPa | 748.8
27232 kPa | 748.8
27257 kPa | 748.8
27280 kPa | 748.8
27309 kPa | 748.8
27328 kPa | 748.8
27362 kPa | 749
27385 kPa | 748.9
27419 kPa | 748.9
27438 kPa | 749
27475 kPa | 749
27501 kPa | 749
27523 kPa | 749
27557 kPa | 749.1
27579 kPa | 749.1
27609 kPa | 749.1
27632 kPa | 749.1
27667 kPa | 749.1
27690 kPa | 749.2
27713 kPa | 749.1
27748 kPa | 749.3
27770 kPa | 749.1
27805 kPa | 749.2
27827 kPa | 749.1
27850 kPa | 749.2
27877 kPa | 749.2
27896 kPa | 749.1
27924 kPa | 749.3
27959 kPa | 749.2
27983 kPa | 749.3
28006 kPa | 749.4
28033 kPa | 749.3
28056 kPa | 749.4
28076 kPa | 749.4
28099 kPa | 749.3
28123 kPa | 749.3
